# Measured values as given in patent US20030061671A1, “Thioxanthone dyes with improved solubility and a method of preparing 2-oxybenzanthrones as intermediate materials for making of these dyes” (priority 2001, published 2003).
# Like-named read-outs stand apart in the source and are kept apart here.
# Columns and labels:
# [1] = Solubility comparison in chloroform (chloroform added to 0.1 g dye until full solubility); format: physicochemical
# Method: Solubility Comparison of the Claimed compound and the Prototype
# Two mixtures were prepared for comparison. The first one contained a dye prepared as per Example 1 by taking 0.1 g of the dye and adding chloroform until full solubility. The second mixture was prepared using 0.1 g of 6-methoxy-14H-anthra(2,1,9-mna)thioxanthene-14-one dye and also adding chloroform until its full solubility. At the end, 30 ml of chloroform was required to solute 0.1 g of the dye in the first mixture while 120 ml of the chloroform was required to solute the same amount of dye in case of the prototype.
# [2] = colorant described by Carlini et al.; cited from earlier work
Molecule,"chloroform required to solute 0.1 g of the dye ([1]; 0.1 g dye, chloroform added until full solubility) [mL]","improvement in solubility in chloroform versus prototype ([1]; claimed dye vs 6-methoxy prototype, chloroform)",chloroform required to solute 0.1 g of the dye [1] [mL],solubility in organic solvents and polymer materials [2]
"6-n-Octyloxy-14H-anthra(2,1,9 mna)thioxanthene-14-one [Example 1]",30,four-fold,–,–
"COc1cc2c3ccccc3c(=O)c3ccc4c5ccccc5sc1c4c32 [6-methoxy-14H-anthra(2,1,9-mna)thioxanthene-14-one]",–,–,120,poorly soluble
